Assay results taken from US20050019854A1, “Novel method for screening inhibitors of the linkage between the neuronal nitric oxide synthase associated protein and the protein inhibiting neuronal nitric oxide synthase” (priority 2001, published 2005).
Ends that are not written are not given here.

Legend:
[1] = system: islets of Langerhans of Zucker (fa/fa) rats; assay: Glucose-induced insulin secretion in isolated islets of Zucker (fa/fa) rats (Example 4); assay type: cell-based, rat; settings: 2 g/L glucose; for reduction of the insulin response: 1 hour
Procedure: The islets of Langerhans of Zucker (fa/fa) rats are isolated using the collagenase digestion technique of Lacy et al. (Diabetes, 1967). After isolation, the islets are stabilized in Krebs-Ringer containing 0.75 g/L glucose for 45 minutes at 37° C. Groups of three islets are then incubated in Krebs-Ringer with 2 g/L glucose containing increasing concentrations of the molecule C24H18N4O5S (20-100 μM) for 1 hour at 37° C. The liquid supernatant is then recovered and insulin secretion measured by radioimmunology (see FIG. 8).

[2] = target: T1, binding of the PIN to the nNOS (Rattus norvegicus, UniProt P63170); assay: Surface plasmon resonance analysis of inhibition of PIN binding to immobilized nNOS (Example 3); settings: for inhibition of the binding of the PIN to the nNOS: SPR
T1 construct: catalogue number not given; host or cells: PIN: E. coli BL21 (DE3)
T1 sequence (P63170 whole entry): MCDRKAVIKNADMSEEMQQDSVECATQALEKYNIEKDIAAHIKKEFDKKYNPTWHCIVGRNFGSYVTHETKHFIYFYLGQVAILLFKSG

[3] = target: T1, binding of the PIN to the nNOS; assay: ELISA: inhibition of the binding of GST-PIN to immobilized nNOS (Example 2, first method); settings: peptide 50 μg/ml
PIN = target: T2, PIN (Rattus norvegicus, UniProt P63170); assay: Surface plasmon resonance analysis of PIN binding to immobilized nNOS peptides (Example 1)
T2 construct: GST (N, cleaved yes); made in house; host or cells: E. coli BL21 (DE3), vector pGEX-2T
T2 sequence (P63170 whole entry): as above

[4] = target: T3, protein inhibitor of neuronal nitric oxide synthase (PIN), produced by thrombin digestion of GST-PIN (rat, UniProt P63170 1-89); assay: SPR (BIAcore 2000), peptide immobilized, reference is the normal nNOS peptide
T3 construct: Released from GST-PIN (vector pGEX-2T) by thrombin digestion; also called PIN protein
T3 sequence (P63170 whole entry): as above

[5] = target: T4, GST-PIN (PIN with a glutathione S-transferase tag in the N-terminal position) (rat, UniProt P63170 1-89); assay: competition ELISA, GST-PIN preincubated with peptide, nNOS immobilized
T4 construct: Produced in E. coli BL21(DE3) and purified on glutathione sepharose; The thrombin linker between GST and PIN is not described; also called GST-tagged PIN; not shown: Glutathione S-transferase tag of vector pGEX-2T (Pharmacia), N-terminal
T4 sequence (P63170 whole entry): as above

[6] = target: T4, GST-PIN (PIN with a glutathione …); assay: competition ELISA, GST-PIN preincubated with 50 µg/ml peptide, nNOS immobilized
[7] = target: T3, protein inhibitor of neuronal nitric …; assay: SPR competition, PIN preincubated with peptide, nNOS immobilized

Molecule: CCOc1ccc(N2C(=O)NC(=O)/C(=C\c3ccc(Sc4nc5ccccc5[nH]4)o3)C2=O)cc1 [C24H18N4O5S]
- concentration from which insulin secretion is blocked in a dose-dependant fashion ([1]; tested 20-100 μM): ≥ 50 µM
- reduction of the insulin response ([1]; molecule 50 μM): 36%
- reduction of the insulin response ([1]; molecule 100 μM): 79%

Molecule: CC[C@H](C)[C@H](N)C(=O)N[C@@H](CC(=O)O)C(=O)N[C@H](C(=O)NCC(=O)N[C@H](C(=O)N[C@@H](CCC(N)=O)C(=O)N[C@H](C(=O)N[C@@H](CC(=O)O)C(=O)N[C@@H](Cc1c[nH]c2ccccc12)C(=O)N[C@@H](CC(=O)O)C(=O)O)C(C)C)[C@@H](C)CC)C(C)C [SEQ ID NO: 4]
- inhibition of the binding of the PIN to the nNOS ([2]; peptide 1 μg/ml): 75%
- inhibition of the binding of the PIN to the nNOS ([2]; peptide 10 μg/ml): 98%
- inhibition of the binding of the PIN to the nNOS [3]: ≤ 78%

Molecule: KDTGIQVDWD [SEQ ID NO: 3]
- IC50 ([2]; SPR inhibition curves, FIG. 7D, read-out: inhibition constant (Ki: IC50)): 4 µM
- inhibition of the binding of the PIN to the nNOS ([2]; peptide 5 μg/ml): 59%
- inhibition of the binding of the PIN to the nNOS ([2]; peptide 30 μg/ml): 90%
- inhibition of the binding of the PIN to the nNOS ([2]; peptide 40 μg/ml): 91%
- inhibition of the binding of the PIN to the nNOS [3]: up to 71%
- Ka (association constant) of PIN for immobilized peptide (PIN; BIAcore, PIN 5-40 μg/ml, global analysis): 1.86×10^8
- Kd (PIN; BIAcore, PIN 5-40 μg/ml, global analysis, read-out: Kd (dissociation constant) of PIN for immobilized peptide): 5.38 nM
- affinity of the PIN protein for the mutant peptide relative to the normal peptide (PIN; SPR, ratio vs normal peptide): two times greater

B1: mutant nNOS peptide represented by sequence SEQ ID NO: 3 (Lys-Asp-Thr-Gly-Ile-Gln-Val-Asp-Trp-Asp) (peptide)
peptide: KDTGIQVDWD
notes: Synthetic 10-mer; It differs from the normal peptide by Arg to Trp at position 9
- fold affinity against the normal peptide [4]: 2 fold
- IC50 [5]: 5 µM
- percent inhibition of PIN-nNOS binding [6]: 71%

B2: normal (non-mutant) nNOS peptide Lys Asp Thr Gly Ile Gln Val Asp Arg Asp (nNOS amino acids 229-238) (peptide)
peptide: KDTGIQVDRD
notes: Made by Fmoc solid phase synthesis; also called normal peptide; normal nNOS peptide
- IC50 [5]: 300 µM
- percent inhibition of PIN-nNOS binding [6]: 14%

B3: mutant nNOS peptide represented by sequence SEQ ID NO: 4 (Ile-Asp-Val-Gly-Ile-Gln-Val-Asp-Trp-Asp) (peptide)
peptide: IDVGIQVDWD
notes: Synthetic 10-mer
- IC50 [7]: 400 nM
- IC50 [5]: 0.5 µM
- percent inhibition of PIN-nNOS binding [6]: 78%
